Measured values reported in patent publication US5019574A, “3,4-diaminoquinoline and 3,4-diamino-5,6,7,8-tetrahydroquinoline compounds useful for improving psychoneural function” (Chugai Seiyaku Kabushiki Kaisha, priority 1988, dated 1991).
Read-outs that look alike come from different tables or passages of the source.

Tests used:
[1] = system: norepinephrine uptake into the synaptosomes; experiment: Inhibition of catecholamine uptake: 3H-norepinephrine uptake into synaptosomes; assay type: biochemical, rats (F344/Crj); settings: 1 μM; norepinephrine uptake in the absence of drug compounds taken as 100
Description: (§1) Inhibition of Catecholamine Uptake:
(§2) A crude synaptosomal fraction (P2) was obtained from the brain of rats (F344/Crj) in the usual manner. In accordance with the method of S. H. Snyder and J. T. Coyle described in Journal of Pharmacology and Experimental Therapeutics, 165(1), 78-86, 1969, the fraction P2 was incubated in a Krebs-Henseleit bicarbonate buffer solution at 37° C. for 10 minutes together with 50 nM ^3 H-norepinephrine (0.25 jμCi). Thereafter, the uptake of norepinephrine into the synaptosomes was measured by the filtration method. Selected compounds were added at a concentration of 1 μM to the solution being incubated and their effect on norepinephrine uptake was examined. The control drug was tetrahydroaminoacridine (THA).
The results are shown in Table 3 in terms of percentage, with norepinephrine uptake in the absence of drug compounds being taken as 100.

[2] = system: male ICR mice; experiment: Improvement of memory and learning ability tested by passive avoidance response; assay type: in vivo; settings: dose 10 (μg/kg i.p.); retention trial 24 hours after acquisition trial
Description: Improvement of memory and Learning Ability Tested by Passive Avoidance Response:
Four groups of male ICR mice (10-14 weeks old). each consisting of 10 animals, were used in the experiment. Except for one control group, the mice were administered with selected compounds of the present invention. The experimental chamber consisted of a light and a dark compartment and an electric current shock source was connected to the floor grid in the dark compartment.
The experimental sessions consisted of acclimation. acquisition, and retention trials and were performed for […], one trial per day. In the acclimation trial, animals were placed in the light compartment of the experimental chamber and left there for 5 minutes to acclimate them to the apparatus. In the acquisition trial which was conducted on the 2nd day, the animals were placed in the light compartment and when they entered the dark compartment, they were confined and given an a.c. electric shock (1 mA) through the floor grid for 10 seconds. In the retention trial which was conducted 24 hours after the acquisition trial, the animals were placed in the light compartment of the chamber and the step-through latency (i.e., the time required for the animals to enter the dark compartment) was measured. A physiological saline solution was administered at the acclimation trial to all of the animals. At the acquisition trial, selected compounds were administered in amounts of 10 μg/kg of body weight (1 ml/100 g). The control group was administered the same amount of physiological saline solution 60 minutes before the start of the trial. All administrations were intraperitoneal.

[3] = biological target: T1, acetylcholinesterase (Electrophorus electricus, UniProt O42275); experiment: Inhibition of acetylcholinesterase activity; assay type: biochemical; settings: activity without drug compound taken as 100, average of three measurements, read-out: Inhibition rate (%)
T1 construct: purchased Sigma C-2888
Description: Inhibition of Acetylcholinesterase Activity:
Acetylcholinesterase activity was assayed in accordance with the method of S. H. Sterri and F. Fonnum described in European Journal of Biochemistry, 91: 215-222, 1978. The method consisted of incubating 0.5 μU of authentic acetylcholinesterase ([…]) (Sigma, No. C-2888) at 30° C. for 15 minutes in a 20 mM sodium phosphate buffer (pH 7.4). with 1.3 mM [1^-14 C] acetylcholine (0.025 μCi) being used as a substrate. Selected compounds of the general formula (I) were added at a concentration of 1 μM to the reaction solution and the resulting effect on enzymatic activity was evaluated.
The result was obtained as the average of three measurements and shown in Table 2 in terms of percentage, with the activity for the case where no drum compound was added being taken as 100.

[4] = system: uptake of dopamine into synaptosomes; experiment: Inhibition of catecholamine uptake: 3H-dopamine uptake into synaptosomes; assay type: biochemical, rats (F344/Crj); settings: 1 μM; dopamine uptake in the absence of drugs taken as 100
Description: as §2, §1
The uptake of dopamine into synaptosomes was measured by repeating the procedure of Test Example 2 except that 50 nM ^3 H-norepinephrine (0.25 μCi) was replaced by 15 nM ^3 H-dopamine (0.68 μCi). The control drug was tetrahydroaminoacridine (THA). The result is shown in Table 5 in terms of percentage, with dopamine uptake in the absence of drugs being taken as 100.

[5] = biological target: T2, MAO-A (Rattus norvegicus, UniProt P21396); experiment: Inhibition of monoamine oxidase: MAO-A; assay type: biochemical, rats (F344/Crj); settings: read-out: Inhibition rate (%) MAO-A
T2 construct: A crude synaptosomal fraction (P2) was obtained from the brain of rats (F344/Crj); from tissue; host or cells: rat (F344/Crj) brain, crude synaptosomal fraction (P2), homogenized
T2 sequence (P21396 1-526): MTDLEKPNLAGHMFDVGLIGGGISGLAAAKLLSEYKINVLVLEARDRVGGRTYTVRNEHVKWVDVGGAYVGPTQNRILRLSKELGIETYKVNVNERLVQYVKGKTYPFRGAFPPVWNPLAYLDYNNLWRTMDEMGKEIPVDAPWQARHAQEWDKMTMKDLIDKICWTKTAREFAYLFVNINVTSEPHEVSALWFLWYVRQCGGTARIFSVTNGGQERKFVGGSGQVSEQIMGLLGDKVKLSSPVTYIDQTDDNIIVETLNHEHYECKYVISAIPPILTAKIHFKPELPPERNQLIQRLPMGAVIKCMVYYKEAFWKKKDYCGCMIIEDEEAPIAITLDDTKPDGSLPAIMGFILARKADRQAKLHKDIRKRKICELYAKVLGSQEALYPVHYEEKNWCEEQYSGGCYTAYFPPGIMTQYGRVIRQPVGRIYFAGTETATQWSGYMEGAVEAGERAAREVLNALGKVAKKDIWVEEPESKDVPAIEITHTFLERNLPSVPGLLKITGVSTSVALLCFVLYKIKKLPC
Description: (§3) Inhibition of Monoamine Oxidase (MAO):
(§4) A crude synaptosomal fraction (P2) was obtained from the brain of rats (F344/Crj) in the usual manner and homogenized to perform MAO activity measurements. The substrate was 12 μM [^14 C]-serotonin in the case of MAO-A activity measurements, and 5 μM [^14 C]-2-phenethylamine in the case of MAO-B activity measurements. In accordance with the method of R. J. Wurtman and J. Axelrod described in Biochemical Pharmacol. 12, […], 1963, the homogenates were incubated in 100 mM phosphate buffer (pH 7.4) at 37° C. for 20 minutes and the effect of adding selected compounds at a concentration of 10 μM was evaluated.

[6] = biological target: T3, MAO-B (Rattus norvegicus, UniProt P19643); experiment: Inhibition of monoamine oxidase: MAO-B; assay type: biochemical, rats (F344/Crj); settings: read-out: Inhibition rate (%) MAO-B
T3 construct: A crude synaptosomal fraction (P2) was obtained from the brain of rats (F344/Crj); from tissue; host or cells: rat (F344/Crj) brain, crude synaptosomal fraction (P2), homogenized
T3 sequence (P19643 1-520): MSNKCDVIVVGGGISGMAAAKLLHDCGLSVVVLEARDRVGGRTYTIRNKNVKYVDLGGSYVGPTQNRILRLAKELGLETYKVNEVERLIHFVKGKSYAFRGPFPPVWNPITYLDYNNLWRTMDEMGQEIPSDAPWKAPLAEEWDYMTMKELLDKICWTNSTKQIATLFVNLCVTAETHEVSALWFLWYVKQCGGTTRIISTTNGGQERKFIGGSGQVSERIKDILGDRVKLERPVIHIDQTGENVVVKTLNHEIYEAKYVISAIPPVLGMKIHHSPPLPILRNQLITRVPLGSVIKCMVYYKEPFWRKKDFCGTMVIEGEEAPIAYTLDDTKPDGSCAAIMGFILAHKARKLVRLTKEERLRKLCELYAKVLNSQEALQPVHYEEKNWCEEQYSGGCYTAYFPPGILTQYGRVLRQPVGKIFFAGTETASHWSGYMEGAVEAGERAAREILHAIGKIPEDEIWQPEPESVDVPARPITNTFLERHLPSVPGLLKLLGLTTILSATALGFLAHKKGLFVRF
Description: as §3, §4

[7] = 10 μM, 12 μM [14C]-serotonin substrate, None = 100
[8] = 10 μM, 5 μM [14C]-2-phenethylamine substrate, None = 100

T1 sequence (O42275 24-633): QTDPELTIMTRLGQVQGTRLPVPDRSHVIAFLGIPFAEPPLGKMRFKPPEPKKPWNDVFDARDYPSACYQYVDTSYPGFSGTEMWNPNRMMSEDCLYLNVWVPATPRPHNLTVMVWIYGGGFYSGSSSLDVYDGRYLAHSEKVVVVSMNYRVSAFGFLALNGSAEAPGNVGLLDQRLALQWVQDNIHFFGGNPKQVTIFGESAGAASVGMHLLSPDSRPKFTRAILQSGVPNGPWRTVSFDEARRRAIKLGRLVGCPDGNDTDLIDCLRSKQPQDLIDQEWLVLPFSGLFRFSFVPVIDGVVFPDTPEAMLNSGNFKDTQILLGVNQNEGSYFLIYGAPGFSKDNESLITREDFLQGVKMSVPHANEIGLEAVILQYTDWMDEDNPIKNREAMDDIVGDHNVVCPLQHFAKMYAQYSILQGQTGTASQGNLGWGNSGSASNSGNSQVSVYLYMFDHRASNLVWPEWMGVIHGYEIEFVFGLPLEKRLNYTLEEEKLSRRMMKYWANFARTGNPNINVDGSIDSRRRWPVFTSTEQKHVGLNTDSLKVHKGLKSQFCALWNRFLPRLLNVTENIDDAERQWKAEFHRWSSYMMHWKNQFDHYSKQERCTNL

For `Nc1c(N2CCCCC2)cnc2ccccc12` [Compound 1, 4-amino-3-piperidinoquinoline], the “Inhibition rate (%)” value [1] was 69.1%.

In the case of `CN1CCN(c2cnc3ccccc3c2N)CC1` [Compound 2], the “Step through latency” value [2] is reported as 92.1 ± 13.5 s and the inhibition at 1 µM [3] is reported as 27.1%.

With `Nc1c2c(nc(C3CCCCC3O)c1N1CCOCC1)CCCC2` (centres unmarked) [Compound 6, 4-amino-g-(2.-hydroxycyclohexyl)-3-morpholino-5,6,7,8-tetrahydroquinoline] the “Inhibition rate (%)” value [1] was 82.6%, the “Step through latency” value [2] was 144.8 ± 45.1 s and the inhibition at 1 µM [3] was 36.9%.

In the case of `Nc1c(N2CCOCC2)c(Nc2ccccc2)nc2ccccc12` [Compound 13, 4-amino-2-anilino-3-morpholinoquinoline], the “Step through latency” value [2] is reported as 100.2 ± 17.8 s.

In the case of `Nc1c2c(nc(Nc3ccccc3)c1N1CCOCC1)CCCC2` [Compound 15, 4-amino-2-anilino-3-morpholino-5,6,7,8-tetrahydroquinoline], the “Inhibition rate (%)” value [1] is reported as 85.4%, the “Step through latency” value [2] is reported as 80.4 ± 14.6 s and the inhibition at 1 µM [3] is reported as 37.2%.

With `Nc1c2c(nc(NC3CCCCC3)c1N1CCOCC1)CCCC2` [Compound 16] the “Inhibition rate (%)” value [1] was 88.1%, the “Step through latency” value [2] was 102.1 ± 22.3 s and the inhibition at 1 µM [3] was 25.9%.

For `Nc1c(N2CCOCC2)c(C2CCCCC2)nc2ccccc12` [Compound 18, 4-amino-2-cyclohexyl-3-morpholinoquinoline], the “Step through latency” value [2] was 116.4 ± 29.2 s.

In the case of `Nc1c2c(nc(C3CCCCC3)c1N1CCOCC1)CCCC2` [Compound 19, 4-amino-2-cyclohexyl-3-morpholino-5,6,7,8-tetrahydroquinoline], the “Inhibition rate (%)” value [1] is reported as 83.2%, the “Step through latency” value [2] is reported as 107.1 ± 29.9 s and the inhibition at 1 µM [3] is reported as 21.8%.

For `CCN(CC)c1c(C2CCCCC2=O)nc2ccccc2c1N` (centres unmarked) [Compound 22], the “Step through latency” value [2] was 144.8 ± 25.5 s.

For `CCN(CC)c1c(C2CCCCC2O)nc2c(c1N)CCCC2` (centres unmarked) [Compound 23], the “Inhibition rate (%)” value [1] was 73.7% and the “Inhibition rate (%)” value [4] was 83.0%.

With `CCN(CC)c1c(C2CCCCC2)nc2ccccc2c1N` [Compound 24] the “Inhibition rate (%)” value [1] was 68.2%, the “Step through latency” value [2] was 94.2 ± 14.7 s and the “Inhibition rate (%)” value [4] was 59.6%.

For `CCN(CC)c1c(C2CCCCC2)nc2c(c1N)CCCC2` [Compound 25], the “Inhibition rate (%)” value [1] was 75.3%, the “Inhibition rate (%)” value [4] was 76.4% and the inhibition at 1 µM [3] was 30.1%.

`Nc1c(N2CCCCC2)c(C2CCCCC2)nc2ccccc12` [Compound 26] was tested, and the “Inhibition rate (%)” value [1] was 68.2% and the “Inhibition rate (%)” value [4] was 55.4%.

For `Nc1c2c(nc(C3CCCCC3)c1N1CCCCC1)CCCC2` [Compound 28], the “Inhibition rate (%)” value [1] was 85.2%, the “Inhibition rate (%)” value [4] was 80.5% and the inhibition at 1 µM [3] was 22.2%.

`CCCN(CCC)c1c(C2CCCCC2O)nc2c(c1N)CCCC2` (centres unmarked) [Compound 30] was tested, and the “Inhibition rate (%)” value [1] was 76.9% and the “Inhibition rate (%)” value [4] was 79.2%.

With `CCCN(CCC)c1c(C2CCCCC2)nc2c(c1N)CCCC2` [Compound 32] the “Inhibition rate (%)” value [1] was 73.2%, the “Step through latency” value [2] was 109.7 ± 16.6 s and the “Inhibition rate (%)” value [4] was 71.0%. It also gave an inhibition at 1 µM [3] of 28.7%.

In the case of `CCN(CC)c1c(NC2CCCCC2)nc2c(c1N)CCCC2` [Compound 34], the “Inhibition rate (%)” value [1] is reported as 80.0% and the “Inhibition rate (%)” value [4] is reported as 84.8%.

Compound `Nc1c(N2CCCCC2)c(Nc2ccccc2)nc2ccccc12` [Compound 35] has an inhibition at 1 µM [3] of 28.3%.

For `CCCC(C)c1nc2ccccc2c(N)c1N1CCOCC1` (centres unmarked) [Compound 39], the “Inhibition rate (%)” value [1] was 71.9% and the “Step through latency” value [2] was 108.3 ± 16.0 s.

With `CCCC(C)c1nc2c(c(N)c1N1CCOCC1)CCCC2` (centres unmarked) [Compound 40] the “Step through latency” value [2] was 113.1 ± 29.6 s.

`Nc1c2c(nc(C3CCCCC3=O)c1N1CCOCC1)CCCC2` (centres unmarked) [Compound 41] gave an inhibition at 1 µM [3] of 4.2%.

With `CCNc1nc2ccccc2c(N)c1N1CCOCC1` [Compound 43, 4-amino-2-ethylamino-3-morpholinoquinoline] the “Inhibition rate (%)” value [1] was 78.8% and the “Step through latency” value [2] was 109.1 ± 13.4 s.

With `CCOc1nc2ccccc2c(N)c1N1CCCCC1` [Compound 44] the “Step through latency” value [2] was 90.4 ± 12.4 s.

`CCNc1nc2ccccc2c(N)c1N1CCCCC1` [Compound 45] was tested, and the “Inhibition rate (%)” value [1] was 79.8%, the “Step through latency” value [2] was 70.7 ± 6.8 s and the “Inhibition rate (%)” value [4] was 82.3%.

`Nc1ccnc(C2CCCCC2=O)c1N1CCOCC1` (centres unmarked) [Compound 49] was tested, and the inhibition at 10 µM [5, 7] was 54.5%, the “Inhibition rate (%)” value [4] was 67.5% and the inhibition at 10 µM [6, 8] was 71.2%.

With `Nc1ccnc(C2CCCCC2=O)c1N1CCCCC1` (centres unmarked) [Compound 50] the “Step through latency” value [2] was 83.4 ± 14.8 s.

`CCNc1c(N2CCOCC2)nc2ccccc2c1N` [Compound 52, 4-amino-3-ethylamino-2-morpholinoquinoline] was tested, and the “Inhibition rate (%)” value [1] was 79.8%, the inhibition at 10 µM [5, 7] was 0% and the “Inhibition rate (%)” value [4] was 57.8%. For the same compound, the inhibition at 10 µM [6, 8] was 63%.

In the case of `Nc1c2c(nc3ccccc13)CCCC2` [control, tetrahydroaminoacridine, reference compound], the inhibition at 10 µM [5] is reported as 60.8% and the inhibition at 10 µM [6] is reported as 90.3%.

`Nc1c(N2CCCCC2)cnc2ccccc12` [drawing 149] showed an inhibition at 10 µM [5, 7] of 44.1% and an inhibition at 10 µM [6, 8] of 82.9%.
